Test [1] has as its target T1, Amine oxidase [flavin-containing] A (Homo sapiens, UniProt P21397).
T1 sequence (P21397 whole entry): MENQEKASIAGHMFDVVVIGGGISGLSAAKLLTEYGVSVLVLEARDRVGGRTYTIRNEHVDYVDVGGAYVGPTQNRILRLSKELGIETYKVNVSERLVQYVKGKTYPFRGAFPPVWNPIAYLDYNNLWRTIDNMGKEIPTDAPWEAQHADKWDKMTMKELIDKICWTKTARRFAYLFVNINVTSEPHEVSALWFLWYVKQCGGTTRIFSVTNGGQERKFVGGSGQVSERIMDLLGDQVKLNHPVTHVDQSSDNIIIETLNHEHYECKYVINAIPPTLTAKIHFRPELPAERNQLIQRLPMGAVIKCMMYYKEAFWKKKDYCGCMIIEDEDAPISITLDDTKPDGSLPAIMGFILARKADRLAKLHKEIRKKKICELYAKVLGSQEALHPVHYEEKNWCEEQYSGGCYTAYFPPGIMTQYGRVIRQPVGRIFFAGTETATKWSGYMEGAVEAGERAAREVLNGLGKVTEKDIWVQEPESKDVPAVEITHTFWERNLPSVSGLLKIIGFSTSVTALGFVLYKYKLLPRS

Test [2] has as its target T2, Amine oxidase [flavin-containing] B (Homo sapiens, UniProt P27338).
T2 sequence (P27338 whole entry): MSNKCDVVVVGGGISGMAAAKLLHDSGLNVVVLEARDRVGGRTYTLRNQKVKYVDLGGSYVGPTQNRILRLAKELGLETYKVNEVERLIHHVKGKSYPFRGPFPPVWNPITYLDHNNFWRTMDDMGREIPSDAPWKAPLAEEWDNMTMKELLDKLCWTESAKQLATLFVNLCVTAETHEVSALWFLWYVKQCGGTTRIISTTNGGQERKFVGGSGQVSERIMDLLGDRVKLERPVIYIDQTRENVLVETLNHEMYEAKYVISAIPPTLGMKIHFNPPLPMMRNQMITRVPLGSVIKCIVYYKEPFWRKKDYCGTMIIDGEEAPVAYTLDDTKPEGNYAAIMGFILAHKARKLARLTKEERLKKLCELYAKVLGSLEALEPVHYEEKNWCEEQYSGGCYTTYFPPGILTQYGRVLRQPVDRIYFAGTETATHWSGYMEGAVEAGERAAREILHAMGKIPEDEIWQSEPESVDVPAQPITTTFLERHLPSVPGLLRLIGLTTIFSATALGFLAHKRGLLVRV
Kind of test: Competitive inhibition of human recombinant MAO-B assessed as inhibitory constant using varying levels of kynuramine as substrate by Lineweaver-burk plot analysis.

For test [3], the target named is T2, Amine oxidase [flavin-containing] B.
The target of test [4] is T1, Amine oxidase [flavin-containing] A. Kind of test: Competitive inhibition of human recombinant MAO-A assessed as inhibitory constant using varying levels of kynuramine as substrate by Lineweaver-burk plot analysis.
Test [5] has as its target Acetylcholinesterase (Homo sapiens, UniProt P22303). As to the kind of experiment: Inhibition of human recombinant AChE using S-acetylthiocholine as substrate by DTNB reagent based spectrophotometric analysis.
The target of test [6] is Cholinesterase (Equus caballus, UniProt P81908).
Description: Inhibition of equine serum BuChE using S-butyrylthiocholine as substrate at by DTNB reagent based spectrophotometric analysis
Test [7] concerns the target D-amino-acid oxidase (Sus scrofa, UniProt P00371). As to the kind of experiment: Inhibition of porcine kidney DAAO using D-serine as substrate by Amplex red and horseradish peroxidase fluorescence assay.

Data on twelve compounds can be found in ChEMBL document CHEMBL5214951, “Isatoic anhydrides as novel inhibitors of monoamine oxidase” (Bioorg Med Chem, 2022).

Cholinesterase, sequence (P81908 whole entry): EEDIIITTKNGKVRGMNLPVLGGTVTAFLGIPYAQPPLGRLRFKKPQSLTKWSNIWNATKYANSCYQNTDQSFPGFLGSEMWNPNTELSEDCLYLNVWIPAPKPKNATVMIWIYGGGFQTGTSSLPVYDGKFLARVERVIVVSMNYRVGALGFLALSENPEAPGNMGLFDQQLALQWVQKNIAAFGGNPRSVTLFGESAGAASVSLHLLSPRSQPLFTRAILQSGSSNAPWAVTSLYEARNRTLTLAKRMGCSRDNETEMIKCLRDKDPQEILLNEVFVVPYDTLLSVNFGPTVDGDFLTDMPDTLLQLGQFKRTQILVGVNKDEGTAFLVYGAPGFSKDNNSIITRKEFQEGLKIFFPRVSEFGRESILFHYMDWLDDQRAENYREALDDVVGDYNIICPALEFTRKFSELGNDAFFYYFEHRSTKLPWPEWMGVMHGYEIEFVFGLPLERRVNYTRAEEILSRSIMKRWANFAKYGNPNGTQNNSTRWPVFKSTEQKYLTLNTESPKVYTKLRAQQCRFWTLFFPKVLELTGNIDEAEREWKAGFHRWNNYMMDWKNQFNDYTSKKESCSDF
Acetylcholinesterase, sequence (P22303 whole entry): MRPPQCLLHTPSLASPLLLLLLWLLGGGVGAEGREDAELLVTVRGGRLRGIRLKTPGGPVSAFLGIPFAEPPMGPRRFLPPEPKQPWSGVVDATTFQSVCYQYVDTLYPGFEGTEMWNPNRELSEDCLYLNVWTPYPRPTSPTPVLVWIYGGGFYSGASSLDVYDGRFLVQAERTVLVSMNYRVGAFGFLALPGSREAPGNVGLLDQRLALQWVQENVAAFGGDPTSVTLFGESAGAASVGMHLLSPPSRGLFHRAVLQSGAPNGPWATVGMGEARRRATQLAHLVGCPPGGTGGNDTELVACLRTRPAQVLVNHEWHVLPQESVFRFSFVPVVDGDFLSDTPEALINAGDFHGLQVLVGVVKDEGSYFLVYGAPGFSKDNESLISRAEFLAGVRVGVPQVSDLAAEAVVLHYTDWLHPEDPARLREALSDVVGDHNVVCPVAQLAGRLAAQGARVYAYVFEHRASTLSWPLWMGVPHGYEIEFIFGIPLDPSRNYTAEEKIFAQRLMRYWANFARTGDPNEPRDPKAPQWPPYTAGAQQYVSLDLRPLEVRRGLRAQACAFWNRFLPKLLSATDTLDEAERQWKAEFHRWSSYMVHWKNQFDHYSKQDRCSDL
D-amino-acid oxidase, sequence (P00371 whole entry): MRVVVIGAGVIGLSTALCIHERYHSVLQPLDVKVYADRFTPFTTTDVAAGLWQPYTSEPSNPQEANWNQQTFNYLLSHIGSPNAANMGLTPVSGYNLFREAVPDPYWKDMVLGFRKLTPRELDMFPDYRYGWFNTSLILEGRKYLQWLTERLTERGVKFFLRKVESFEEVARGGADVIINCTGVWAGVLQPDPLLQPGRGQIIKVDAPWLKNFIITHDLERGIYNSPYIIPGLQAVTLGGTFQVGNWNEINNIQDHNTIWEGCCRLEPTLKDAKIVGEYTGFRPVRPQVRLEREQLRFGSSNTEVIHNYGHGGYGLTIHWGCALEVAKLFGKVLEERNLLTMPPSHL

Usually IC50 stands for the concentration at which inhibition is half-maximal. What is called Ki is the equilibrium dissociation constant of an inhibitor or competing ligand from its target. In the case of `O=c1[nH]c2ccc(OCc3ccccc3)cc2c(=O)o1`, the results for the IC50 in test [1] and in test [3] were 132 nM and 73 nM, respectively. For the same compound, the Ki in test [2] stood at 4.3 nM; in test [4], 52 nM.

Turning to `O=c1[nH]c2ccc(OCc3ccc(F)cc3)cc2c(=O)o1`, the IC50 is 122 nM in test [1], 15 nM in test [3] and 76.2 µM in test [5].

On to `O=c1[nH]c2ccc(OCc3cccc(Br)c3)cc2c(=O)o1`, for which the results for the IC50 in test [1] and in test [3] were 59 nM and 11 nM, respectively.

For the compound `O=c1[nH]c2ccc(OCc3ccc(Br)cc3)cc2c(=O)o1`, the IC50 turned out to be 9.5 nM in test [1], 6.9 nM in test [3] and 19.8 µM in test [6].

Regarding `O=c1[nH]c2ccc(OCc3ccc4ccccc4c3)cc2c(=O)o1`, the figures for the IC50 in test [1], in test [3] and in test [6] were 65 nM, 20 nM and 16.6 µM, respectively.

In the case of `COc1cc(/C=C/C(=O)CC(=O)/C=C/c2ccc(O)c(OC)c2)ccc1O` [CURCUMIN], in test [7], it took 1070 nM to reach half-maximal inhibition (IC50).

`O=c1[nH]c2ccc(OCc3cccc(C(F)(F)F)c3)cc2c(=O)o1`: the values for the IC50 in test [1] and in test [3] were 83 nM and 4.7 nM, respectively.

Take `Cc1ccc(COc2ccc3[nH]c(=O)oc(=O)c3c2)cc1`: the 50% inhibitory concentration (IC50) worked out at 61 nM in test [1], 6.4 nM in test [3] and 19.1 µM in test [6].

For the compound `COc1cccc(COc2ccc3[nH]c(=O)oc(=O)c3c2)c1`, the IC50 in test [1] was determined as 94 nM; in test [3], 18 nM.

For the compound `CC(C)c1ccc(COc2ccc3[nH]c(=O)oc(=O)c3c2)cc1`, the IC50 in test [1] was determined as 10 nM; in test [3], 76 nM; in test [5], 55 µM; in test [6] it was 21.1 µM.

Take `O=c1[nH]c2ccc(OCc3cccc(I)c3)cc2c(=O)o1`: the IC50 in test [1] was 43 nM; in test [3] it was 14 nM.

With `Cc1cc(C(=O)O)n[nH]1`, in test [7], the IC50 worked out at 933 nM.
